The record followed here is patent US8163739B2, “2-arylthiazole-4-carboxamide derivatives, their preparation and use as pharmaceuticals” (Bayer Pharma Aktiengesellschaft, priority 2007, dated 2012).

As a reminder, the EC50 is the concentration giving half of the maximal effect.

Each structure is given as a SMILES string.

The experiment concerns TLR7. As to the kind of experiment: TLR-induced cytokine release in human peripheral blood mononuclear cells (PBMC), TNF-alpha ELISA. It counts as cell-based. The conditions noted are these: 18 hours incubation, TLR7 ligand, TNF-alpha by ELISA, read-out: EC50 (TNF-α TLR7). On the procedure: TLR-induced Cytokine Release in Human “Peripheral Blood Mononuclear Cells” (PBMC)
PBMCs isolated from human whole blood are stimulated using a TLR ligand.
The cytokine determination is carried out by means of ELISA kits; a proliferation/cell metabolism determination is carried out using Alamar Blue.
For the cell preparation, about 200 ml of blood are treated with an anticoagulant (e.g. citrate Monovettes). Per Leucosep tube, 15 ml of Histopaque (room temperature, RT) are poured in and forced downwards through the inserted frit by brief initial centrifugation (one minute at 1000×g, RT). 20 ml of blood are added to the tubes prepared in this way and centrifuged at 800×g for 15 minutes (RT). After centrifugation, the following layered arrangement results from the top to the bottom:
plasma-PBMC-Histopaque-filter disc-Histopaque-erythrocytes and granulocytes. The supernatant plasma is aspirated. The PBMC are transferred together with the underlying Histopaque to a new 50 ml tube, the contents of two Leucosep tubes always being added to one 50 ml tube. The 50 ml tubes are then filled to 50 ml with PBS. This cell suspension is centrifuged at 300×g (RT) for 10 minutes.
The liquid supernatant is tipped off and the cell pellet is resuspended with a little PBS and subsequently filled to 50 ml with PBS. This washing step is repeated twice. The resulting pellet is taken up in a defined volume of medium (with additives). For the testing of the substances, PBMC are incubated for 18 hours with titrated concentrations of the test substances, e.g. in the presence or absence of TLR7 or TLR9 ligands. On the next day, the supernatants are investigated for the content of TNF-alpha or other cyto- or chemokines by means of specific ELISA. The metabolic activity of the treated cells is determined with the aid of Alamar Blue.
Background: In an ELISA, binding on a coated surface is turned into a signal by an enzyme label.
As for `Cn1cc(NC(=O)c2csc(-c3cccc(S(C)(=O)=O)c3)n2)c(C(N)=O)n1` [Example 1.1, 2-(3-Methanesulphonylphenyl)thiazole-4-(3-carbamoyl-1-methyl-1H-pyrazol-4-yl)carboxamide], the EC50 was determined as 85 nM.

With `Cn1ncc(NC(=O)c2csc(-c3ccc4c(c3)CCO4)n2)c1C(N)=O` [Example 2.1, N-[5-(Aminocarbonyl)-1-methyl-1H-pyrazol-4-yl]-2-(2,3-dihydro-5-benzofuranyl)-4-thiazolecarboxamide], the EC50 is 1200 nM.

Consider `CN1CCc2c(sc(NC(=O)c3csc(-c4ccc5c(c4)CCO5)n3)c2C(N)=O)C1` [Example 2.5, 2-{[2-(2,3-Dihydrobenzofuran-5-yl)thiazole-4-carbonyl]amino}-6-methyl-4,5,6,7-tetrahydrothieno[2,3-c]pyridine-3-carboxamide], for which the EC50 worked out at 1100 nM.

For the compound `NC(=O)c1ccccc1NC(=O)c1csc(-c2ccc3c(c2)OCO3)n1` [Example 3.1, N-[2-(Aminocarbonyl)phenyl]-2-(3,4-methylenedioxyphenyl)-4-thiazolecarboxamide], the EC50 came out at 300 nM.

On to `CS(=O)(=O)c1cccc(-c2nc(C(=O)Nc3ccccc3C(N)=O)cs2)c1` [Example 3.2, N-[2-(Aminocarbonyl)phenyl]-2-(3-methylsulphonylphenyl)-4-thiazole-carboxamide], for which the EC50 was 3400 nM.

Turning to `COc1ccc(-c2nc(C(=O)Nc3ccccc3C(N)=O)cs2)cc1F` [Example 3.4, N-[2-(Aminocarbonyl)phenyl]-2-(3-fluoro-4-methoxyphenyl)-4-thiazole-carboxamide], the EC50 is 120 nM.
